The values below come from patent US20170305943A1, “COMPOUNDS FOR THE TREATMENT OF BACTERIAL INFECTIONS” (priority 2014, published 2017).

By MIC is commonly meant the smallest concentration in the dilution series that meets the test's criterion for growth inhibition.

Values after ≈ are worked out from the molar mass of the structure shown. A value given as a limit tells only on which side of the number the result lay.

The subject of the test is Clostridium difficile (Isolate ID ATCC 9689). The test is described as follows: Bacterial Assay: Determination of Antibacterial Activity (MIC, broth microdilution or agar dilution). The test is classed as cell-based. The following applies: Clostridioides difficile, ATCC9689, 48 h, read-out: C. difficile MIC Activity Range. Summed up: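 MICs were set by CLSI broth microdilution or agar dilution for anaerobes, read visually after 48 hours at 37° C. under anaerobic gas packs. Medium was reinforced clostridial medium with 0.1% defibrinated horse blood; values are binned as A ≦1.01, B >1.0-4.0, C >4.0-16 μg/mL.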
Background: Broth dilution looks for growth in wells or tubes with falling amounts of substance.
Regarding `NC(=O)c1c(F)ccc(OCCCc2nc(-c3ccc(C(F)(F)F)cc3)cs2)c1F` [Compound 113, 2,6-difluoro-3-(3-{4-[4-(trifluoromethyl)phenyl]-1,3-thiazol-2-yl}propoxy)benzamide], the MIC lay in the range of 1 to 4 µg/mL (≈ 2.26 to 9.04 µM).

For `NC(=O)c1c(F)ccc(OCCCc2nc(-c3ccc(OC(F)F)cc3)cs2)c1F` [Compound 114, 3-(3-{4-[4-(difluoromethoxy)phenyl]-1,3-thiazol-2-yl}propoxy)-2,6-difluorobenzamide], the MIC lay within 1 to 4 µg/mL (≈ 2.27 to 9.08 µM).

`NC(=O)c1c(F)ccc(OCCCc2nc(-c3ccc(OC(F)(F)F)cc3)cs2)c1F` [Compound 115, 2,6-difluoro-3-(3-{4-[4-(trifluoromethoxy)phenyl]-1,3-thiazol-2-yl}propoxy)benzamide]: the minimum inhibitory concentration (MIC) fell in the range of 1 to 4 µg/mL (≈ 2.18 to 8.73 µM).

As for `NC(=O)c1c(F)ccc(OCCCc2nc(-c3ccc(S(F)(F)(F)(F)F)cc3)cs2)c1F` [Compound 116, 2,6-difluoro-3-(3-{4-[4-(pentafluoro-lambda~6~- sulfanyl)phenyl]-1,3-thiazol-2-yl}propoxy)benzamide], the minimal inhibitory concentration (MIC) was 1 to 4 µg/mL (≈ 2 to 7.99 µM).

In the case of `NC(=O)c1c(F)ccc(OCCc2nc(-c3ccc(OC(F)(F)F)cc3)no2)c1F` [Compound 117, 2,6-difluoro-3-(2-{3-[4-(trifluoromethoxy)phenyl]-1,2,4-oxadiazol-5-yl}ethoxy)benzamide], the MIC was < 1.01 µg/mL.

On to `NC(=O)c1c(F)ccc(OCCc2nc(-c3ccc(S(F)(F)(F)(F)F)cc3)no2)c1F` [Compound 118, 2,6-difluoro-3-(2-{3-[4-(pentafluoro-lambda~6~- sulfanyl)phenyl]-1,2,4-oxadiazol-5-yl}ethoxy)benzamide], for which the MIC was < 1.01 µg/mL.

Take `N/C(=N\O)c1c(F)ccc(OCc2nc(-c3ccc(OC(F)(F)F)cc3)ns2)c1F` [Compound 119, 2,6-difluoro-N′-hydroxy-3-({3-[4-(trifluoromethoxy)phenyl]-1,2,4-thiadiazol-5-yl}methoxy)benzenecarboximidamide]: the MIC is 1 to 4 µg/mL (≈ 2.24 to 8.96 µM).

As for `NC(=O)c1c(F)ccc(OCc2nc(-c3ccc(S(F)(F)(F)(F)F)cc3)no2)c1F` [Compound 120, 2,6-difluoro-3-({3-[4-(pentafluoro-lambda~6~- sulfanyl)phenyl]-1,2,4-oxadiazol-5-yl}methoxy)benzamide], the MIC was in the range of 4 to 16 µg/mL (≈ 8.75 to 35 µM).

On to `NC(=O)c1c(F)ccc(OCc2nc(-c3ccc(S(F)(F)(F)(F)F)cc3)co2)c1F` [Compound 121, 2,6-difluoro-3-({4-[4-(pentafluoro-lambda~6~- sulfanyl)phenyl]-1,3-oxazol-2-yl}methoxy)benzamide], for which the MIC fell in the range of 1 to 4 µg/mL (≈ 2.19 to 8.77 µM).

In the case of `NC(=O)c1c(F)ccc(NCc2nc(-c3ccc(C(F)(F)F)cc3)cs2)c1F` [Compound 122, 2,6-difluoro-3-[({4-[4-(trifluoromethyl)phenyl]-1,3-thiazol-2-yl}methyl)amino]benzamide], the MIC was < 1.01 µg/mL.

`CCCCCCCCCNc1ccc(F)c(C(N)=O)c1F` [Compound 123, 2,6-difluoro-3-(nonylamino)benzamide]: the MIC lay within 1 to 4 µg/mL (≈ 3.35 to 13.4 µM).

`NC(=O)c1c(F)ccc(OCCCOc2ccc(Cl)cc2)c1F` [Compound 124, 3-[3-(4-chlorophenoxy)propoxy]-2,6-difluorobenzamide]: the MIC fell in the range of 1 to 4 µg/mL (≈ 2.93 to 11.7 µM).

`NC(=O)c1c(F)ccc(OCCCOc2ccc(C(F)(F)F)cc2)c1F` [Compound 125, 2,6-difluoro-3-{3-[4-(trifluoromethyl)phenoxy]propoxy}benzamide]: the MIC fell in the range of 1 to 4 µg/mL (≈ 2.66 to 10.7 µM).

Regarding `NC(=O)c1c(F)ccc(OCCCCOc2ccc(Cl)cc2Cl)c1F` [Compound 137, 3-[4-(2,4-dichlorophenoxy)butoxy]-2,6-difluorobenzamide], the MIC was < 1.01 µg/mL.

In the case of `CCOC(=O)c1ccc(OCCCCOc2ccc(F)c(C(N)=O)c2F)cc1` [Compound 138, ethyl 4-[4-(3-carbamoyl-2,4-difluorophenoxy)butoxy]benzoate], the MIC is < 1.01 µg/mL.

Take `NC(=O)c1c(F)ccc(OCCCCOc2ccccc2Cl)c1F` [Compound 139, 3-[4-(2-chlorophenoxy)butoxy]-2,6-difluorobenzamide]: the MIC was 4 to 16 µg/mL (≈ 11.2 to 45 µM).

As for `NC(=O)c1c(F)ccc(OCCCCOc2cccc(Cl)c2)c1F` [Compound 140, 3-[4-(3-chlorophenoxy)butoxy]-2,6-difluorobenzamide], the MIC lay within 1 to 4 µg/mL (≈ 2.81 to 11.2 µM).

Turning to `NC(=O)c1c(F)ccc(OCCCCOc2ccc(C(F)(F)F)cn2)c1F` [Compound 141, 2,6-difluoro-3-(4-{[5-(trifluoromethyl)pyridin-2-yl]oxy}butoxy)benzamide], the MIC is < 1.01 µg/mL.

In the case of `NC(=O)c1c(F)ccc(OCCCCNc2ccc(Cl)cc2)c1F` [Compound 142, 3-{4-[(4-chlorophenyl)amino]butoxy}-2,6-difluorobenzamide], the minimal inhibitory concentration (MIC) is 1 to 4 µg/mL (≈ 2.82 to 11.3 µM).

On to `NC(=O)c1c(F)ccc(OCCCCOc2ccc(Cl)cn2)c1F` [Compound 143, 3-{4-[(5-chloropyridin-2-yl)oxy]butoxy}-2,6-difluorobenzamide], for which the MIC is < 1.01 µg/mL.

Turning to `NC(=O)c1c(F)ccc(OCCCCOc2ccc(C(F)(F)F)nc2)c1F` [Compound 144, 2,6-difluoro-3-(4-{[6-(trifluoromethyl)pyridin-3-yl]oxy}butoxy)benzamide], the MIC lay within 1 to 4 µg/mL (≈ 2.56 to 10.2 µM).

`NC(=O)c1c(F)ccc(OCCOCCOc2ccc(OC(F)(F)F)cc2)c1F` [Compound 145, 2,6-difluoro-3-(2-{2-[4-(trifluoromethoxy)phenoxy]ethoxy}ethoxy) benzamide]: the MIC was < 1.01 µg/mL.

In the case of `NC(=O)c1c(F)ccc(OCCOCCOc2ccc(C(F)(F)F)cc2)c1F` [Compound 146, 2,6-difluoro-3-(2-{2-[4-(trifluoromethyl)phenoxy]ethoxy}ethoxy) benzamide], the MIC was < 1.01 µg/mL.

On to `NC(=O)c1c(F)ccc(OCCCCNc2ccc(C(F)(F)F)cc2)c1F` [Compound 147, 2,6-difluoro-3-(4-{[4-(trifluoromethyl)phenyl]amino}butoxy) benzamide], for which the MIC lay within 1 to 4 µg/mL (≈ 2.58 to 10.3 µM).

Turning to `NC(=O)c1c(F)ccc(OCCCCNc2ccc(OC(F)(F)F)cc2)c1F` [Compound 148, 2,6-difluoro-3-(4-{[4-(trifluoromethoxy)phenyl]amino}butoxy) benzamide], the MIC is < 1.01 µg/mL.

For the compound `NC(=O)c1c(F)ccc(OCCCCOc2ccc(OC(F)F)cc2)c1F` [Compound 149], the MIC was < 1.01 µg/mL.

Consider `NC(=O)c1c(F)ccc(NCCCCOc2ccc(OC(F)(F)F)cc2)c1F` [Compound 150, 2,6-difluoro-3-({4-[4-(trifluoromethoxy)phenoxy]butyl}amino) benzamide], for which the MIC was 1 to 4 µg/mL (≈ 2.47 to 9.89 µM).

For `NC(=O)c1c(F)ccc(OCCCCOc2ccccc2)c1F` [Compound 151, 2,6-difluoro-3-(4-phenoxybutoxy)benzamide], the MIC was in the range of 1 to 4 µg/mL (≈ 3.11 to 12.4 µM).

`NC(=O)c1c(F)ccc(OCCCCSc2ccc(Cl)cc2)c1F` [Compound 153, 3-{4-[(4-chlorophenyl)thio]butoxy}-2,6-difluorobenzamide]: the MIC is < 1.01 µg/mL.

On to `COc1ccc(OCCCCOc2ccc(F)c(C(N)=O)c2F)cc1` [Compound 154, 2,6-difluoro-3-[4-(4-methoxyphenoxy)butoxy]benzamide], for which the MIC is 1 to 4 µg/mL (≈ 2.85 to 11.4 µM).

Turning to `NC(=O)c1c(F)ccc(OCCOCCOc2ccc(C(F)(F)F)cn2)c1F` [Compound 156, 2,6-difluoro-3-[2-(2-{[5-(trifluoromethyl)pyridin-2-yl]oxy}ethoxy)ethoxy]benzamide], the MIC lay in the range of 1 to 4 µg/mL (≈ 2.46 to 9.84 µM).

Turning to `NC(=O)c1c(F)ccc(SCCCCOc2ccc(OC(F)(F)F)cc2)c1F` [Compound 157, 2,6-difluoro-3-({4-[4-(trifluoromethoxy)phenoxy]butyl}thio)benzamide], the MIC is 1 to 4 µg/mL (≈ 2.37 to 9.49 µM).

`NC(=O)c1c(F)ccc(OCCCCOc2ccc(C(F)(F)F)nn2)c1F` [Compound 158, 2,6-difluoro-3-(4-{[6-(trifluoromethyl)pyridazin-3-yl]oxy}butoxy)benzamide]: the MIC was in the range of 4 to 16 µg/mL (≈ 10.2 to 40.9 µM).

As to `NC(=O)c1c(F)ccc(OCCCCOc2ccc(F)cc2F)c1F` [Compound 162, 3-[4-(2,4-difluorophenoxy)butoxy]-2,6-difluorobenzamide], the MIC is 1 to 4 µg/mL (≈ 2.8 to 11.2 µM).

Take `NC(=O)c1c(F)ccc(OCCCCOc2ccc(OC(F)(F)F)c(Br)c2)c1F` [Compound 163, 3-{4-[3-bromo-4-(trifluoromethoxy)phenoxy]butoxy}-2,6-difluorobenzamide]: the MIC is < 1.01 µg/mL.

Turning to `NC(=O)c1c(F)ccc(OCCCCOc2ccc(OC(F)(F)F)c(Cl)c2)c1F` [Compound 164, 3-{4-[3-chloro-4-(trifluoromethoxy)phenoxy]butoxy}-2,6-difluorobenzamide], the MIC is < 1.01 µg/mL.

`NC(=O)c1c(F)ccc(OCCCCOc2cccc(C(F)(F)F)c2)c1F` [Compound 165, 2,6-difluoro-3-{4-[3-(trifluoromethyl)phenoxy]butoxy}benzamide]: the MIC is 1 to 4 µg/mL (≈ 2.57 to 10.3 µM).

For the compound `NC(=O)c1c(F)ccc(OCCCCOc2cccc(OC(F)(F)F)c2)c1F` [Compound 166, 2,6-difluoro-3-{4-[3-(trifluoromethoxy)phenoxy]butoxy} benzamide], the MIC is < 1.01 µg/mL.

On to `NC(=O)c1c(F)ccc(OCCCCOc2cccc(F)c2)c1F` [Compound 167, 2,6-difluoro-3-[4-(3-fluorophenoxy)butoxy] benzamide], for which the MIC was 1 to 4 µg/mL (≈ 2.95 to 11.8 µM).

As for `NC(=O)c1c(F)ccc(OCCCCOc2ccc(F)cc2)c1F` [Compound 168, 2,6-difluoro-3-[4-(4-fluorophenoxy)butoxy] benzamide], the MIC was 1 to 4 µg/mL (≈ 2.95 to 11.8 µM).

For `NC(=O)c1c(F)ccc(OCCCCOc2ccc(Cl)c(C(F)(F)F)c2)c1F` [Compound 169, 3-{4-[4-chloro-3-(trifluoromethyl)phenoxy]butoxy}-2,6-difluorobenzamide], the MIC is < 1.01 µg/mL.

For `NC(=O)c1c(F)ccc(OCCCCOc2ccc(F)c(F)c2)c1F` [Compound 170, 3-[4-(3,4-difluorophenoxy)butoxy]-2,6-difluorobenzamide], the MIC lay in the range of 1 to 4 µg/mL (≈ 2.8 to 11.2 µM).

On to `NC(=O)c1c(F)ccc(OCCCCOc2ccc(Cl)c(Cl)c2)c1F` [Compound 171, 3-[4-(3,4-dichlorophenoxy)butoxy]-2,6-difluorobenzamide], for which the minimal inhibitory concentration (MIC) was < 1.01 µg/mL.
